Measured values taken from paper PMC10377643, “Exploration of Bis-Cinnamido-Polyamines as Intrinsic Antimicrobial Agents and Antibiotic Enhancers” (Biomolecules, 2023).

Columns and labels:
S. aureus ATCC 25923 = assay: Antimicrobial MIC, S. aureus; format: cell-based; conditions: Staphylococcus aureus, ATCC25923, mean (n = 3)
Description: (§1) The susceptibility of bacterial strains S. aureus (ATCC 25923), E. coli (ATCC 25922) and P. aeruginosa (ATCC 27853) to antibiotics and compounds was determined using protocols reported previously. Additional antimicrobial evaluation against MRSA (ATCC 43300), Klebsiella pneumoniae (ATCC 700603), Acinetobacter baumannii (ATCC 19606), Candida albicans (ATCC 90028) and Cryptococcus neoformans (ATCC 208821) was undertaken at the Community for Open Antimicrobial Drug Discovery at The University of Queensland (Australia) according to their standard protocols reported previously.

MRSA ATCC 43300 = assay: Antimicrobial MIC, MRSA (CO-ADD); format: cell-based, methicillin-resistant S. aureus; conditions: Staphylococcus aureus; MRSA ATCC 43300; mean (n = 2); read-out: MIC MRSA
Description: as §1

P. aeruginosa ATCC 27853 [1] = assay: Antimicrobial MIC, P. aeruginosa; format: cell-based; conditions: Pseudomonas aeruginosa, ATCC27853, mean (n = 3)
Description: as §1

E. coli ATCC 25922 [2] = assay: Antimicrobial MIC, E. coli; format: cell-based, Escherichia coli; conditions: Escherichia coli, ATCC25922, E. coli ATCC 25922; mean (n = 3)
Description: as §1

C. albicans ATCC 90028 = assay: Antifungal MIC, C. albicans (CO-ADD); format: cell-based; conditions: Candida albicans, ATCC90028, mean (n = 2)
Description: as §1

[3] = tested on: C. neoformans ATCC 208821; assay: Antifungal MIC, C. neoformans (CO-ADD); format: cell-based; conditions: Cryptococcus neoformans, ATCC208821, mean (n = 2)
Description: as §1

Cytotoxicity assay = format: cell-based, human; conditions: human, HEK293 human embryonic kidney cells, mean (n = 2), read-out: Cytotoxicity (IC50), concentration of compound at 50% cytotoxicity
Description: Cytotoxicity assays were conducted using the protocols previously reported.

human red blood cells = assay: Hemolytic assay; format: cell-based; conditions: mean (n = 2)
Description: Hemolysis assays were conducted using the protocols previously reported.

P. aeruginosa ATCC 27853 [4] = assay: Doxycycline enhancement against P. aeruginosa; format: cell-based, Pseudomonas aeruginosa; conditions: doxycycline fixed at 4.5 µM
Description: (§2) Antibiotic enhancer concentrations were determined using previously reported protocols.
We then evaluated the set of analogues for the ability to enhance the antibiotic activity of doxycycline against P. aeruginosa ATCC 27853 and of erythromycin against E. coli ATCC 25922 (Table 2). In the case of doxycycline, a fixed concentration of the antibiotic of 4.5 μM, which is twenty-fold lower than the intrinsic MIC 90 μM against this organism, was used. Each of the test compounds was then evaluated at a range of concentrations varying from 3.125 to 50–100 μM, with the upper concentration dependent upon the compounds intrinsic MIC towards P. aeruginosa (Table 1). […] While the observation of cytotoxicity/hemolytic properties of 16a–c, 14f and 13f reduces our interest in these analogues, analogues 13b and 13d were identified as non-toxic and strong enhancers of the action of doxycycline towards P. aeruginosa.

E. coli ATCC 25922 [5] = assay: Erythromycin enhancement against E. coli; format: cell-based, Escherichia coli; conditions: erythromycin fixed at 10.9 µM (8 µg/mL)
Description: as §2

Compound | MIC (S. aureus ATCC 25923) [µM] | MIC (MRSA ATCC 43300) [µM] | MIC (P. aeruginosa ATCC 27853 [1]) [µM] | MIC (E. coli ATCC 25922 [2]) [µM] | MIC (C. albicans ATCC 90028) [µM] | MIC [3] [µM] | IC50 (Cytotoxicity assay) [µM] | Hemolysis (HC10), concentration of compound at 10% hemolytic activity (human red blood cells) [µM] | Dox/P. a: concentration required to restore doxycycline activity (P. aeruginosa ATCC 27853 [4]) [µM] | Dox/P. a: fold change (intrinsic MIC of test compound / combination MIC) (P. aeruginosa ATCC 27853 [4]) [fold] | Eryth/E. c: concentration required to restore erythromycin activity (E. coli ATCC 25922 [5]) [µM] | Eryth/E. c: fold change (intrinsic MIC of test compound / combination MIC) (E. coli ATCC 25922 [5]) [fold]
O=C(C=Cc1ccccc1)NCCCNCCCCCCCNCCCNC(=O)C=Cc1ccccc1.O=C(O)C(F)(F)F.O=C(O)C(F)(F)F [Compound 13c, N^1,N^7-Bis(3-cinnamamidopropyl)heptane-1,7-diaminium 2,2,2-trifluoroacetate] | > 273 | > 43.7 | > 273 | > 273 | > 43.7 | > 43.7 | > 43.7 | >43.7 | 68 | > 4 | 136 | > 2
O=C(C=Cc1ccccc1)NCCCNCCCCCCCCCCNCCCNC(=O)C=Cc1ccccc1.O=C(O)C(F)(F)F.O=C(O)C(F)(F)F [Compound 13e, N^1,N^10-Bis(3-cinnamamidopropyl)decane-1,10-diaminium 2,2,2-trifluoroacetate] | 64.5 | 20.6 | 645 | 645 | > 41.3 | 41.3 | 24.3 | 37.6 | 645 | 1 | 64.5 | 10
O=C(C=Cc1ccccc1)NCCCNCCCCCCCCCCCCNCCCNC(=O)C=Cc1ccccc1.O=C(O)C(F)(F)F.O=C(O)C(F)(F)F [Compound 13f, N^1,N^12-Bis(3-cinnamamidopropyl)dodecane-1,12-diaminium 2,2,2-trifluoroacetate] | 3.12 | ≤ 0.31 | 50 | 1.56 | > 39.9 | ≤ 0.31 | 19.9 | >39.9 | 6.25 | 8 | 3.125 | 0.5
COc1ccc(/C=C/C(=O)NCCCNCCCCCCNCCCNC(=O)/C=C/c2ccc(OC)cc2)cc1.O=C(O)C(F)(F)F.O=C(O)C(F)(F)F [Compound 14b, N^1,N^6-Bis(3-((E)-3-(4-methoxyphenyl)acrylamido)propyl)hexane-1,6-diaminium 2,2,2-trifluoroacetate] | 64.2 | 41.1 | > 257 | > 257 | > 41.1 | ≤ 0.32 | > 41.1 | >41.1 | 64 | > 4 | 256 | > 1
COc1ccc(/C=C/C(=O)NCCCNCCCCCCNCCCNC(=O)/C=C/c2ccc(OC)c(Br)c2)cc1Br.O=C(O)C(F)(F)F.O=C(O)C(F)(F)F [Compound 15b, N^1,N^6-Bis(3-((E)-3-(3-bromo-4-methoxyphenyl)acrylamido)propyl)hexane-1,6-diaminium 2,2,2-trifluoroacetate] | 6.67 | 2.1 | > 214 | 53 | > 34.1 | ≤ 0.27 | > 34.2 | 0.99 | 53.4 | > 4 | 26.7 | 2
COc1ccc(/C=C/C(=O)NCCCNCCCCCCCCNCCCNC(=O)/C=C/c2ccc(OC)c(Br)c2)cc1Br.O=C(O)C(F)(F)F.O=C(O)C(F)(F)F [Compound 15d, N^1,N^8-Bis(3-((E)-3-(3-bromo-4-methoxyphenyl)acrylamido)propyl)octane-1,8-diaminium 2,2,2-trifluoroacetate] | 6.48 | ≤ 0.26 | > 207 | 25.9 | 33.2 | ≤ 0.26 | 19.7 | 0.52 | 51.8 | > 4 | 25.9 | 1
COc1ccc(/C=C/C(=O)NCCCNCCCCCCCCCCNCCCNC(=O)/C=C/c2ccc(OC)c(Br)c2)cc1Br.O=C(O)C(F)(F)F.O=C(O)C(F)(F)F [Compound 15e, N^1,N^10-Bis(3-((E)-3-(3-bromo-4-methoxyphenyl)acrylamido)propyl)decane-1,10-diaminium 2,2,2-trifluoroacetate] | 1.57 | ≤ 0.25 | 50.4 | 25.2 | 32.2 | 1 | > 32.2 | 24.1 | 50.4 | 1 |  | 
COc1c(Br)cc(/C=C/C(=O)NCCCNCCCCCCCCCCNCCCNC(=O)/C=C/c2cc(Br)c(OC)c(Br)c2)cc1Br.O=C(O)C(F)(F)F.O=C(O)C(F)(F)F [Compound 16e, N^1,N^10-Bis(3-((E)-3-(3,5-dibromo-4-methoxyphenyl)acrylamido)propyl)decane-1,10-diaminium 2,2,2-trifluoroacetate] | 1.36 | ≤ 0.22 | 87 | 43.5 | 27.8 | ≤ 0.22 | 2 | 13.6 | 43.5 | 2 |  | 
